Experimental data as given in PMC7725003, “Systematically Studying the Optimal Amino Acid Distribution Patterns of the Amphiphilic Structure by Using the Ultrashort Amphiphiles” (Frontiers in Microbiology, 2020).
Where no end group is shown, it is not given here.

What was measured:
[1] = test system: S. aureus 25923; type: cell-based, Staphylococcus aureus; conditions: 25923, 24 h
Method: (§1) The antimicrobial activities of the peptides were measured using a method adapted from the National Committee for Clinical Laboratory Standards (NCCLS) with some modifications ([Chou et al., 2016]). The specific procedure for these assays has been previously described. In brief, the bacterial cells were grown to a mid-logarithmic phase and diluted in MHB to an ultimate concentration of 0.5–1 × 10^6 CFU mL^–1. Subsequently, the peptides were consecutively diluted in a 0.2% BSA solution and then added to a bacterial solution in a 96-well plate at identical volumes. After incubation for 24 h at 37°C, the MICs were determined to be the lowest peptide concentration that inhibited 95% of the bacterial growth by monitoring the absorbance at 492 nm using a microplate reader. Subsequently, 50 μL of each incubation mixture was further transferred to agar plates and incubated overnight. The minimum bactericidal concentrations (MBCs) were determined as the lowest peptide concentration that killed greater than 99.9% of the bacterial cells. Every assay was reproduced more than 3 times.

[2] = test system: S. aureus 29213; type: cell-based, Staphylococcus aureus; conditions: 29213, 24 h
Method: as §1

[3] = test system: S. pullorum 7913; type: cell-based, Salmonella pullorum; conditions: 7913, 24 h
Method: as §1

[4] = test system: E. coli 25922; type: cell-based, Escherichia coli; conditions: 25922, 24 h
Method: as §1

[5] = test system: E. coli UB1005; type: cell-based, Escherichia coli; conditions: UB1005, 24 h
Method: as §1

[6] = test system: E. coli O78; type: cell-based, Escherichia coli; conditions: O78, 24 h
Method: as §1

[7] = test system: Gram-positive bacteria; conditions: for GM, Gram-positive bacteria: geometric mean of MICs (Table 3); for TI, Gram-positive bacteria: therapeutic index TI = MHC/GM MIC
Method: (§2) The antimicrobial activity of AMPs is the most decisive index for evaluating the clinical application of antimicrobial drugs.
as §1, with “The minimum bactericidal concentrations (MBCs) were determined as the lowest peptide concentration that killed greater than 99.9% of the bacterial cells.” left out

[8] = test system: Gram-negative bacteria; conditions: for GM, Gram-negative bacteria: geometric mean of MICs (Table 3); for TI, Gram-negative bacteria: therapeutic index TI = MHC/GM MIC
Method: as §2
as §1, with “The minimum bactericidal concentrations (MBCs) were determined as the lowest peptide concentration that killed greater than 99.9% of the bacterial cells.” left out

[9] = test system: S. aureus 29213; test: Salt sensitivity assay (MIC); type: cell-based, Staphylococcus aureus; conditions: for MIC, FeCl3: 4 μM FeCl3; for MIC, NH4Cl: 6 μM NH4Cl; for MIC, ZnCl2: 8 μM ZnCl2; for MIC, MgCl2: 1 mM MgCl2; for MIC, CaCl2: 2 mM CaCl2; for MIC, KCl: 4.5 mM KCl; for MIC, NaCl: 150 mM NaCl; for MIC, Control: no added salt, three independent assays
Method: as §1
(§3) The salt sensitivities of the peptides were determined. E. coli ATCC 25922 and S. aureus ATCC 29213 were incubated in the presence of various ultimate concentrations of physiological salts (150 mM NaCl, 4.5 mM KCl, 6 μM NH4Cl, 8 μM ZnCl2, 1 mM MgCl2, 2mM CaCl2, and 4 μM FeCl3) according to our previous protocol ([Yang et al., 2019]). These tests were performed under the MICs, and three independent assays were performed.

[10] = test system: Listeria monocytogenes CGMCC 1.1075; type: cell-based; conditions: CGMCC 1.1075, 24 h
Method: as §1

[11] = test system: B. subtilis 63501; type: cell-based, Bacillus subtilis; conditions: 63501, 24 h
Method: as §1

[12] = test system: S. typhimurium 14028; type: cell-based, Salmonella typhimurium; conditions: 14028, 24 h
Method: as §1

[13] = test system: S. typhimurium 7731; type: cell-based, Salmonella typhimurium; conditions: 7731, 24 h
Method: as §1

[14] = test system: E. faecalis 29212; type: cell-based, Enterococcus faecalis; conditions: 29212, 24 h
Method: as §1

[15] = test system: all of the tested bacterial strains; test: Geometric mean of MICs, all tested bacterial strains; type: cell-based; conditions: for GM, All: geometric mean of MICs across all tested strains; for TI, All: therapeutic index TI = MHC/GM MIC
Excerpt: The antimicrobial activity of AMPs is the most decisive index for evaluating the clinical application of antimicrobial drugs. Many antimicrobial agents inhibit bacterial growth rather than kill the bacteria quickly, and long-term infections are pathogens that are not completely killed, which results in bacterial severe drug resistance. […] The geometric mean (GM) values of the MICs/MBCs of the two series across all of the tested bacterial strains are represented in Table 3, which depicts the average bacteriostatic/bactericidal level of a peptide.
as §1

[16] = test system: S. epidermidis 12228; type: cell-based, Staphylococcus epidermidis; conditions: 12228, 24 h
Method: as §1

[17] = test system: P. aeruginosa 27853; type: cell-based, Pseudomonas aeruginosa; conditions: 27853, 24 h
Method: as §1

[18] = test system: MRSA 43300; type: cell-based, methicillin-resistant S. aureus; conditions: 43300, 24 h
Method: as §1

[19] = test system: E. coli ATCC 25922; test: Salt sensitivity assay (MIC); type: cell-based, Escherichia coli; conditions: for MIC, FeCl3: 4 μM FeCl3; for MIC, NH4Cl: 6 μM NH4Cl; for MIC, ZnCl2: 8 μM ZnCl2; for MIC, MgCl2: 1 mM MgCl2; for MIC, CaCl2: 2 mM CaCl2; for MIC, KCl: 4.5 mM KCl; for MIC, NaCl: 150 mM NaCl; for MIC, Control: no added salt, three independent assays
Method: as §1, §3

WRRRRWWWW-NH2 [W11]
MBC [1]: 4 µM | MIC [1]: 2 µM | MBC [2]: 4 µM | MIC [2]: 2 µM | MBC [3]: 8 µM | MIC [3]: 4 µM | MBC [4]: 8 µM | MIC [4]: 4 µM | MBC [5]: 8 µM | MIC [5]: 4 µM | MBC [6]: 16 µM | MIC [6]: 8 µM | GM, Gram-positive bacteria [7]: 2.21 µM | TI, Gram-positive bacteria [7]: 115.84 | GM, Gram-negative bacteria [8]: 5.88 µM | TI, Gram-negative bacteria [8]: 43.54 | MIC, FeCl3 [9]: 2 µM | MIC, NH4Cl [9]: 1 µM | MIC, ZnCl2 [9]: 2 µM | MIC, MgCl2 [9]: 2 µM | MIC, CaCl2 [9]: 2 µM | MIC, KCl [9]: 1 µM | MIC, NaCl [9]: 2 µM | MIC, Control [9]: 2 µM | MBC [10]: 8 µM | MIC [10]: 4 µM | MBC [11]: 2 µM | MIC [11]: 1 µM | MBC [12]: 16 µM | MIC [12]: 8 µM | MBC [13]: 16 µM | MIC [13]: 8 µM | MBC [14]: 8 µM | MIC [14]: 4 µM | GM, All [15]: 3.83 µM | TI, All [15]: 66.84 | MBC [16]: 4 µM | MIC [16]: 2 µM | MBC [17]: 16 µM | MIC [17]: 8 µM | MBC [18]: 4 µM | MIC [18]: 2 µM | MIC, FeCl3 [19]: 4 µM | MIC, NH4Cl [19]: 2 µM | MIC, ZnCl2 [19]: 2 µM | MIC, MgCl2 [19]: 8 µM | MIC, CaCl2 [19]: 16 µM | MIC, KCl [19]: 8 µM | MIC, NaCl [19]: 8 µM | MIC, Control [19]: 4 µM

WRRRWWWWR-NH2 [W6]
MBC [1]: 4 µM | MIC [1]: 2 µM | MBC [2]: 4 µM | MIC [2]: 2 µM | MBC [3]: 16 µM | MIC [3]: 8 µM | MBC [4]: 8 µM | MIC [4]: 4 µM | MBC [5]: 8 µM | MIC [5]: 4 µM | MBC [6]: 8 µM | MIC [6]: 4 µM | GM, Gram-positive bacteria [7]: 2.21 µM | TI, Gram-positive bacteria [7]: 115.84 | GM, Gram-negative bacteria [8]: 5.04 µM | TI, Gram-negative bacteria [8]: 50.79 | MIC, FeCl3 [9]: 2 µM | MIC, NH4Cl [9]: 2 µM | MIC, ZnCl2 [9]: 2 µM | MIC, MgCl2 [9]: 4 µM | MIC, CaCl2 [9]: 4 µM | MIC, KCl [9]: 2 µM | MIC, NaCl [9]: 4 µM | MIC, Control [9]: 2 µM | MBC [10]: 4 µM | MIC [10]: 2 µM | MBC [11]: 2 µM | MIC [11]: 1 µM | MBC [12]: 16 µM | MIC [12]: 8 µM | MBC [13]: 16 µM | MIC [13]: 8 µM | MBC [14]: 8 µM | MIC [14]: 4 µM | GM, All [15]: 3.51 µM | TI, All [15]: 72.93 | MBC [16]: 8 µM | MIC [16]: 4 µM | MBC [17]: 16 µM | MIC [17]: 8 µM | MBC [18]: 4 µM | MIC [18]: 2 µM | MIC, FeCl3 [19]: 4 µM | MIC, NH4Cl [19]: 2 µM | MIC, ZnCl2 [19]: 4 µM | MIC, MgCl2 [19]: 8 µM | MIC, CaCl2 [19]: 16 µM | MIC, KCl [19]: 8 µM | MIC, NaCl [19]: 16 µM | MIC, Control [19]: 4 µM
